Measured values reported in patent EP4640694A1, “SELF-ASSEMBLING PEPTIDE” (CYTOPORT (TIANJIN) BIOTECHNOLOGY CO., LTD, priority 2022, dated 2025).
Where a SMILES comes first, the peptide text is derived from it. [ ]: non-standard residue; d: D form. Hyp = O=C(O)[C@@H]1C[C@@H](O)CN1

Columns and labels:
[1] = Rheological experiment, energy storage modulus (G') of peptide/serum mixture; assay type: physicochemical; details: 0.5% peptide, 10 v/v% fetal bovine serum, neutral pH
Source text: Experimental Methods: Preparation of Self-Assembling Peptide Material Samples: 2 wt% of the self-assembling peptide solution obtained in Example 2 was used, the sequences as shown in SEQ ID NO:1 (IIIIGSIIGPGGDGPGGV), SEQ ID NO:2 (IIIIGSIIGPGGEGPGGV), SEQ ID NO:3 (IIIIGSIIGOGGEGPGGV), SEQ ID NO:4 (IIIIGSIIGOGGGEGPGGV), SEQ ID NO:5 (IIIIGSIIGOGGEGPGGGV), SEQ ID NO:6 (IIIIGSIIGOGGEGPGV), SEQ ID NO:7 (IIIIGSIIGOGAEGPGGV), SEQ ID NO:8 (IIIIIGSIIOGGAEGPGGV), SEQ ID NO:9 (IIIIIGSIIGOGGVGPGGV), and SEQ ID NO: 10 (IIIIIIGSIIGOGAEGPGGVGPGGV).
Preparation of hydrogel samples formed by self-assembling peptide solutions in response to cell complete medium: 2 wt% of stock solution of self-assembling peptides obtained in Example 2 was diluted with phosphate buffer, added by fetal bovine serum to achieve a mixture solution with a final concentration of self-assembling peptide of 0.5%, a final concentration of serum of 10 v/v% with a neutral pH.
The energy storage modulus (G') of the mixture solution was measured on a 20 mm plate using MARS 60 rheometer. In order to determine the rate of formation of three-dimensional nanomatrix, the solution was placed on a plate for testing immediately after preparation. A gap of 500µm was used, mineral oil was added to the gap to prevent dehydration of the samples, and data collection commenced immediately. Dynamic Time-Scanning experiment (DTS) was performed to monitor changes in energy storage modulus (G') with time (1 Hz frequency, 1% strain) for 2000 min.

erythrocytes [2] = experiment: Erythrocyte support experiment with different initiator components; assay type: cell-based
Procedure: Experimental Methods: […] of erythrocyte stock solution (9.17×10^9/mL) was taken and diluted to 10 mL (9.17×10^7/mL) with 10 mM PBS, 4.5mL of erythrocyte dilution was added to a 10 ml of round-bottom tube and 4.5 mL of 4 mmol/L Calcein-AM solution was added, and the mixture was incubated at 37°C for 20 min and then centrifuged at 4°C, 1500r/min for 3 min. The supernatant was removed, and the pellet was resuspended in PBS, and repeated for 5 times to obtain about 1.5 mL of washed erythrocyte resuspension (1×10^8/mL) for latter use.
Experimental Results: PBS buffer was added to the erythrocyte resuspension solution to dilute the erythrocytes to 1×10^7/mL, and the mixture was allowed to stand for 4 hours, and the result was shown in Tube A in Figure 6.
The 1 wt% of self-assembling peptide solution (SEQ ID NO.:3) obtained in Example 2 was added ro make the final peptide concentration in the system of 0.05 wt% and the final concentration of erythrocytes of 1×10^7/mL, and the mixture was allowed to stand for 4 hours, and the result was shown in Tube B in Figure 6.
The mixed solution of polypeptide as shown in SEQ ID NO.:3 with lysine obtained in Example 3 was added to the erythrocytes resuspension solution, i.e., the polypeptide formed a three-dimensional network scaffold material in the presence of lysine, achieving a final peptide concentration in the system of 0.05 wt.%, mixing well and standing, and the result was shown in Tube C in Figure 6.
The mixted solution of self-assembling peptide as shown in SEQ ID NO.:3 with gentamicin obtained in Example 2 was added to the erythrocytes resuspension solution, i.e., the polypeptide formed the three-dimensional network scaffold material in the presence of gentamicin, achieving a final peptide concentration in the system of 0.05 wt.%, mixing well and standing, and the result was shown in Tube D in Figure 6.
The mixted solution of self-assembling peptide as shown in SEQ ID NO.:3 with polylysine obtained in Example 2 was added to the erythrocytes resuspension solution, i.e., the self-assembling peptide formed the three-dimensional network scaffold material in the presence of polylysine, achieving a final peptide concentration in the system of 0.05 wt.%, mixing well and standing, and the result was shown in Tube E in Figure 6.
The mixted solution of self-assembling peptide as shown in SEQ ID NO.:3 with fibrinogen obtained in Example 3 was added to the erythrocytes resuspension solution, i.e., the self-assembling peptide formed the three-dimensional network scaffold material in the presence of fibrinogen, achieving a final peptide concentration in the system of 0.05 wt.%, mixing well and standing, and the result was shown in Tube F in Figure 6.

erythrocytes [3] = experiment: Erythrocyte support by different sequences under liquid conditions; assay type: cell-based; details: 0.01 wt% peptide, 0.1 wt% fibronectin, 1×10^8 erythrocytes
Procedure: Experimental Methods: PBS buffer was used to separately prepare a concentration of 0.1 wt% stock solutions of self-assembling peptides as shown in SEQ ID NO.: 1 (IIIIIGSIIGPGGDGPGGV), SEQ ID NO.: 2 (IIIIIGSIIGPGGEGPGGV), SEQ ID NO.: 3 (IIIIIGSIIGOGGEGPGGV), and SEQ ID NO.: 7 (IIIIIGSIIGOGAEGPGGV). These solutions were autoclaved.
Using 2 mL clear glass vials, 4 materials were prepared at concentrations of 0.1 wt%, 0.05 wt%, and 0.01 wt% in 2 mL of self-assembling peptide solution (containing a final concentration of 0.1 wt% of fibronectin) and a blank group (without self-assembling peptide solution, but containing 0.1 wt% of fibronectin). A stock solution of at a concentration of 5×10^9 erythrocytes was added to each sample to a final concentration of 1×10^8, and the mixture was homogenized by pipetting. Photographs were taken every 4 hours to compare the effects of different materials on the support for erythrocytes.

[4] = test system: mouse mesenchymal stem cells; experiment: Cell storage at 4°C, Calcein-AM/PI live/dead staining by flow cytometry; assay type: cell-based; details: for survival rate of mouse mesenchymal stem cells: 3D storage group, 0.05% peptide
Procedure: Experimental Methods: Storage of mouse mesenchymal stem cells at 4°C was taken as an example in this experiment. The isolated mouse mesenchymal stem cells were mixed well by pipetting, […] aliquots were dispensed into freezing tubes, and mixed well by pipetting so that their cell concentration was about 1×10^6 cells/mL. In 3D group, mouse serum, 1% of double antibody of 50% MAP+50% SFEM storage solution and the polypeptide as shown in SEQ ID NO.:20 (FLIVIGOGIIGOGGEGPGGE) were added to a final concentration of 0.05%. In 2D group, mouse serum and 1% of double antibody of 50% MAP+50% SFEM storage solution were added, followed by storage in a 4°C refrigerator.
Cell viability test: • (1) The preserved cells were thoroughly pipetted and mixed well, 500 µL of each cell suspension was taken into a 1.5 mLEP tube, PBS was added for washing, followed by centrifugation at 1,500 rpm for 10 minutes; and • (2) The supernatant was discarded, and the cells were resuspended in 150 µL of 1% PBA solution. Then, 150 µL of live/dead cell staining working solution was added, mixed thoroughly, and incubated at 37°C in a light-protected manner for 15 minutes. The samples were analyzed using a flow cytometer.

HepG2 cells = experiment: Cytocompatibility: relative viability (CCK-8) and cell counting over 5 days; assay type: cell-based; details: 0.1%, 0.3%, 0.5%, 0.7% peptide, 5 days without medium change
Procedure: The method in Experiment I for preparing a cell suspension at a concentration of 5×10^5 cells/mL was used to prepare a cell suspension at a concentration of 5×10^4 cells/mL. The cells obtained at a concentration of 5×10^4 cells/mL were inoculated into 96-well plates with each well containing about 5,000 cells. In the experimental groups, the self-assembling peptide sol prepared according to the method in Example 2 was added to achieve the concentrations of polypeptide of 0.1%, 0.3%, 0.5%, and 0.7% in the final system. In the control group, an equal volume of PBS buffer was added to replace the peptide solution, respectively. […] During the experiment, 10% of the culture volume of CCK-8 kit was added every 24 hours, and after incubation for 30 minutes, the OD values of each group were measured using an enzyme labeler (parameter setting: primary wavelength of 450 nm, secondary wavelength of 630 nm), and all experiments were set up with 5 parallel groups, and the results of the experiments were shown in Figure 9A. Relative cell viability was calculated using the formula below: Relative cell viability (%) = (At−A0t)/(A1−A01) × 100%; [formula]
Wherein At is the average OD values measured after t days of culturing cells. A0t is the average value of blank background measured after t days. […]

HepG2 = experiment: Cell condition after culture: 5-day viability of cells harvested from spheroids; assay type: cell-based; details: cells harvested after 15 days in 0.1 wt.% peptide, 5-day viability test
Source text: In this experiment, cell spheroids cultured in Experiment III using the polypeptides as shown in SEQ ID NO.: 13 (IIIIIGOGIIGPGGEGPGGE) of the present invention at a concentration of 0.1 wt.% initiated by high-glucose medium were collected by centrifugation and digested into single cells. The applicability of the material of the present invention in cell culture and biomedical field were further evaluated by comparing the cell viability of cells cultured with the material of the present invention with that of cells cultured without the material of the present invention.
The cell spheroids in Experiment III were collected by centrifugation after 15 days of culture, and the cell spheroids were digested into single cells using trypsin, then centrifuged and collected, and an appropriate amount of high-glucose medium was added to the collected cells to prepare cell suspensions at concentrations of 5×10^5 and 5×10^4 cells/mL. Cell suspensions at a concentration of 5 ×10^4 cells/mL were inoculated into 96-well plates so that each well contained 5,000 cells. A cell suspension at a concentration of 5×10^4 cells/mL was prepared according to the method in […] for preparing a cell suspension at a concentration of 5×10^5 cells/mL and it was inoculated into a 96-well plate so that each well contained 5,000 cells, which served as a control group for this experiment. […]

With IIIIGSIIGOGGGEGPGGV [SEQ ID NO.: 4] the “hydrogel structure and elasticity in response to serum” value (“hydrogel structure and elasticity” below) [1] was “could still form a hydrogel structure but with weaker elasticity”.
With IIIIIGSIIGOGGGEGPGV [SEQ ID NO.: 6] the “hydrogel structure and elasticity” value [1] was “could still form a hydrogel structure but with weaker elasticity”.
For IIIIIGSIIGOGGGEGPGGV [SEQ ID NO.: 3], the erythrocyte distribution (erythrocytes [2]; Tube B: 0.05 wt% peptide alone, no initiator, 1×10^7/mL erythrocytes, 4 hours) was “significant sedimentation”, the erythrocyte distribution (erythrocytes [2]; Tube C: 0.05 wt.% peptide with lysine) was “stereoscopic distribution” and the erythrocyte distribution (erythrocytes [2]; Tube D: 0.05 wt.% peptide with gentamicin) was “stereoscopic distribution”. The erythrocyte distribution (erythrocytes [2]; Tube E: 0.05 wt.% peptide with polylysine) was “stereoscopic distribution”, the erythrocyte distribution (erythrocytes [2]; Tube F: 0.05 wt.% peptide with fibrinogen) was “three-dimensional stereoscopic dispersion of the erythrocytes” and the “time at which significant sedimentation of erythrocytes was shown” value (erythrocytes [3]) was 32 h.
In the case of FLIVIGOGIIGOGGGEGPGGE [SEQ ID NO.: 20], the “survival rate of mouse mesenchymal stem cells” value ([4]; day 3 of storage (2D group 67%)) is reported as 79%, the “survival rate of mouse mesenchymal stem cells” value ([4]; day 5 of storage (2D group 43%)) is reported as 71% and the “increase in survival versus 2D storage” value ([4]; day 5 of storage) is reported as roughly 30%.
For `CC[C@H](C)[C@H](N)C(=O)N[C@H](C(=O)N[C@H](C(=O)N[C@H](C(=O)N[C@H](C(=O)NCC(=O)N1C[C@H](O)C[C@H]1C(=O)NCC(=O)N[C@H](C(=O)N[C@H](C(=O)NCC(=O)N1CCC[C@H]1C(=O)NCC(=O)NCC(=O)N[C@@H](CCC(=O)O)C(=O)NCC(=O)N1CCC[C@H]1C(=O)NCC(=O)NCC(=O)N[C@@H](CCC(=O)O)C(=O)O)[C@@H](C)CC)[C@@H](C)CC)[C@@H](C)CC)[C@@H](C)CC)[C@@H](C)CC)[C@@H](C)CC` [SEQ ID NO.: 13, IIIIIGOGIIGPGGEGPGGE] (H-IIIIIG[Hyp]GIIGPGGEGPGGE-OH), the “growth curve (cell counting) over 5 days” value (HepG2 cells) was “grew with a relatively uniform and stable proliferation rate”, the “relative cell viability over 5 days (CCK-8)” value (HepG2 cells) was “uniform and continuous steady increase in cell viability” and the “cell viability of harvested cells compared with control group” value (HepG2) was “slightly better than that of the control group”.
In the case of IIIIIGSIIGOGGGEGPGGGV [SEQ ID NO.: 5], the “hydrogel structure and elasticity” value [1] is reported as “could still form a hydrogel structure but with weaker elasticity”.
